According to ChEMBL document CHEMBL1140568, “Trisubstituted pyrimidines as transient receptor potential vanilloid 1 (TRPV1) antagonists with improved solubility” (Bioorg Med Chem Lett, 2007):
≈ marks a conversion by molar mass, not a printed value.

Experiments:
[1] = biological target: T1, Transient receptor potential cation channel subfamily V member 1 (Rattus norvegicus, UniProt O35433); test: Antagonist activity at rat TRPV1 expressed in CHO cells assessed inhibition of capsaicin induced calcium influx; type: functional, cell-based
[2] = biological target: T1, Transient receptor potential cation channel subfamily V member 1; test: Antagonist activity at rat TRPV1 expressed in CHO cells assessed inhibition of acid induced calcium influx; type: functional, cell-based
[3] = Aqueous solubility in 0.01N HCl; type: physicochemical
[4] = Aqueous solubility in PBS at pH 7; type: physicochemical
[5] = Aqueous solubility in fasted-state stimulated intestinal fluid at pH 6.8; type: physicochemical; conditions: fasted-state simulated intestinal fluid
[6] = AUC (0 to infinity) in Sprague-Dawley rat at 1 mg/kg, iv; type: ADME, organism-based; design: time infinity, dose 1 mg/kg, route intravenous; conditions: plasma
[7] = Clearance in Sprague-Dawley rat at 1 mg/kg, iv; type: ADME, organism-based; design: dose 1 mg/kg, route intravenous; conditions: in vivo
[8] = Volume of distribution at steady state in Sprague-Dawley rat at 1 mg/kg, iv; type: ADME, organism-based; design: dose 1 mg/kg, route intravenous; conditions: in vivo, read-out: Vdss
[9] = Half life in Sprague-Dawley rat at 1 mg/kg, iv; type: ADME, organism-based; design: dose 1 mg/kg, route intravenous; conditions: in vivo
[10] = AUC (0 to infinity) in Sprague-Dawley rat at 5 mg/kg, po; type: ADME, organism-based; design: time infinity, dose 5 mg/kg, route oral; conditions: plasma
[11] = Cmax in Sprague-Dawley rat at 5 mg/kg, po; type: ADME, organism-based; design: dose 5 mg/kg, route oral; conditions: in vivo
[12] = Oral bioavailability in Sprague-Dawley rat at 5 mg/kg; type: ADME, organism-based; conditions: in vivo

T1 sequence (O35433 whole entry): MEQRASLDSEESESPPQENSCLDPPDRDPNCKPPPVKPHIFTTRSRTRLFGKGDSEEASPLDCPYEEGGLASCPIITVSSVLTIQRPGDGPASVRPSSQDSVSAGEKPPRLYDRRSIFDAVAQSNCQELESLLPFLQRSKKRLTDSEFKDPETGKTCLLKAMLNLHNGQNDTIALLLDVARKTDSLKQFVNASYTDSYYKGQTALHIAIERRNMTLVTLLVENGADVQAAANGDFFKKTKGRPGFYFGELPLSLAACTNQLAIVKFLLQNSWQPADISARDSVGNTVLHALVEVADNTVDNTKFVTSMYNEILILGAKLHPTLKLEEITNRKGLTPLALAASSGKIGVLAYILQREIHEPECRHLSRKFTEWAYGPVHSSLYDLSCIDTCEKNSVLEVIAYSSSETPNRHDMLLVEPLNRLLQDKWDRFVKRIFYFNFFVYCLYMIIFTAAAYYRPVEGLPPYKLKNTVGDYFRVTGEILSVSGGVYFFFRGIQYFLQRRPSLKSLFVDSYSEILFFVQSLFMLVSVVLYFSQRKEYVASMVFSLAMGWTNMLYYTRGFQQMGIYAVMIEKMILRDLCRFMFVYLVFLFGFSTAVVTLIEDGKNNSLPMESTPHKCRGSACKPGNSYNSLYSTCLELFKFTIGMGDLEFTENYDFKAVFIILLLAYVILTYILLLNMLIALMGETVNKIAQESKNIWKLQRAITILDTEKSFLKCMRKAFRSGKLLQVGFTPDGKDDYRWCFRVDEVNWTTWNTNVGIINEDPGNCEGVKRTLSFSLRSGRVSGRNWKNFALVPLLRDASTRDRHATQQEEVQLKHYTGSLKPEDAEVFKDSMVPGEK

| Structure (SMILES) | IC50 [1] [nM] | IC50 [2] [nM] | solubility [3] [µg/mL] | solubility [4] [µg/mL] | solubility [5] [µg/mL] | AUC(0-inf) [6] [ng·h/mL] | clearance [7] [mL/min/kg] | Vd [8] [L/kg] | half-life [9] [h] | AUC(0-inf) [10] [ng·h/mL] | Cmax [11] [ng/mL] | bioavailability [12] [%] |
| --- | --- | --- | --- | --- | --- | --- | --- | --- | --- | --- | --- | --- |
| CC(=O)Nc1nc2c(Oc3cc(-c4ccc(C(F)(F)F)cc4)nc(N4CCC(O)CC4)n3)cccc2s1 | 35 | 90 | 21 (≈ 39.7 µM) | 2 (≈ 3.78 µM) | 12 (≈ 22.7 µM) |  |  |  |  |  |  |  |
| CC(=O)Nc1nc2c(Oc3cc(-c4ccc(C(F)(F)F)cc4)nc(N4CCC(C(=O)O)CC4)n3)cccc2s1 | 410 | 27 | ≤ 1 | 6 (≈ 10.8 µM) | 3.4 (≈ 6.1 µM) |  |  |  |  |  |  |  |
| CC(=O)Nc1nc2c(Oc3cc(-c4ccc(C(F)(F)F)cc4)nc(C4=CCN(CC(C)C)CC4)n3)cccc2s1 |  |  |  |  |  | 258 | 67.3 | 6.38 | 2 |  |  |  |
| CC(=O)Nc1nc2c(Oc3cc(-c4ccc(C(F)(F)F)cc4)nc(N)n3)cccc2s1 | 12 | 4.8 | 4.7 (≈ 10.6 µM) | 8.8 (≈ 19.8 µM) | 3.5 (≈ 7.86 µM) |  |  |  |  |  |  |  |
| CC(=O)Nc1nc2c(Oc3cc(-c4ccc(C(F)(F)F)cc4)nc(N4CCOCC4)n3)cccc2s1 | 28 | 1.1 | ≤ 1 | ≤ 1 | 1.4 (≈ 2.72 µM) |  |  |  |  |  |  |  |
| CC(=O)Nc1nc2c(Oc3cc(-c4ccc(C(F)(F)F)cc4)nc(NCC4CCN(CC(C)C)CC4)n3)cccc2s1 | 51 | 64 | ≥ 200 | 9.4 (≈ 15.7 µM) | ≥ 200 |  |  |  |  |  |  |  |
| CC(=O)Nc1nc2c(Oc3cc(-c4ccc(C(F)(F)F)cc4)ncn3)cccc2s1 [AMG-517] |  |  | < 1 | < 1 |  |  |  |  |  |  |  |  |

Results, then the molecule that gave them:

| IC50 [1] [nM] | IC50 [2] [nM] | solubility [3] [µg/mL] | solubility [4] [µg/mL] | solubility [5] [µg/mL] | AUC(0-inf) [6] [ng·h/mL] | clearance [7] [mL/min/kg] | Vd [8] [L/kg] | half-life [9] [h] | AUC(0-inf) [10] [ng·h/mL] | Cmax [11] [ng/mL] | bioavailability [12] [%] | Structure (SMILES) |
| --- | --- | --- | --- | --- | --- | --- | --- | --- | --- | --- | --- | --- |
| 5.1 | 1.5 | ≤ 1 | ≤ 1 | 2.8 (≈ 5.45 µM) |  |  |  |  |  |  |  | CC(=O)Nc1nc2c(Oc3cc(-c4ccc(C(F)(F)F)cc4)nc(N4CCCCC4)n3)cccc2s1 |
| 6.1 | 11 | ≥ 200 | 9.1 (≈ 15.2 µM) | 190 (≈ 317 µM) | 351 | 47.7 | 8.29 | 2.6 |  |  |  | CC(=O)Nc1nc2c(Oc3cc(-c4ccc(C(F)(F)F)cc4)nc(NCC4CCCCN4CC(C)C)n3)cccc2s1 (configuration not stated) |
| 1.5 | 1.6 | ≥ 200 | 6.7 (≈ 12.2 µM) | 150 (≈ 272 µM) | 743 | 22.5 | 6.44 | 5.5 | 899 | 280 | 24 | CC(=O)Nc1nc2c(Oc3cc(-c4ccc(C(F)(F)F)cc4)nc(NC(C)c4ccccn4)n3)cccc2s1 (configuration not stated) |
